Literature values, collected in patent US11224576B2, “Process for the production of an abuse-proofed dosage form” (GRÜNENTHAL GMBH, priority 2004, dated 2022).

## COc1cccc(C2(O)CCCCC2CN(C)C)c1 (stereo not shown) [Tramadol, tramadol]
  water solubility: excellent
